Some results are limits rather than exact numbers.

T1 sequence (P01116 1-188 isoform P01116-2 G12D): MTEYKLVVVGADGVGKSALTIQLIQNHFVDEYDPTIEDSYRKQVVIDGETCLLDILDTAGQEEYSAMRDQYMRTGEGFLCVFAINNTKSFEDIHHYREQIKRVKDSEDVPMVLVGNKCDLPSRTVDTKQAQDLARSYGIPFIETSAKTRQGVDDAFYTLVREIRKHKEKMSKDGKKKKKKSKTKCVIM

One test concerns the target T1, KRas-G12D (Homo sapiens, UniProt P01116, G12D).
T1 construct: insert the HiBiT tag onto the N-terminus of one or more of the endogenous KRas alleles; host or cells: AsPC-1 HiBiT-KRasG12D knock-in clone (one tagged allele, two untagged KRasG12D alleles)
The experiment in a line: HiBiT Degradation Assay (G12D), AsPC-1 HiBiT-KRasG12D cells, 24 hr. It is filed as cell-based. As to conditions: ASPC1, AsPC-1 cells, maximum degradation observed. The procedure: AsPC-1 (CRL-1682) cells were purchased from ATCC and are homozygous for the G12D mutation in KRas. AsPC-1 cells were cultured in GIBCO RPMI-1640 (ThermoFisher Scientific, catalog #61870-036, with Glutamax, no HEPES, no Na Pyruvate) supplemented with 10% FBS (ThermoFisher Scientific, catalog #2060357) and 1× Penicillin-Streptomycin (ThermoFisher Scientific, catalog #15140122, 10000 U/ml, 100×). For degradation assays, 384 well plates were used. Alamar blue was purchased from ThermoFisher Scientific (A50101) and used according to manufacturer instructions. The Nano-Glo® HiBiT Lytic Detection System and Nano-Glo® HiBiT Blotting System were purchased from Promega (#N3050 and #N2410) and used according to manufacturer instructions.
To create the AsPC-1 HiBiT-KRasG12D cell line, CRISPR-Cas9 was used to insert the HiBiT tag onto the N-terminus of one or more of the endogenous KRas alleles. See Schwinn, M. K. et al. (2018) CRISPR-mediated tagging of endogenous proteins with a luminescent peptide, ACS Chem. Biol. 13(2), 467-474. After knock-in of the tag, individual clones were isolated by single cell dilution and screened for HiBiT insertion by PCR. A clone was identified that contained the desired HiBiT-KRasG12D sequence at one allele while the remaining two KRasG12D alleles were untagged. This clone was used in further studies.
AsPC-1 HiBiT-KRasG12D cells were plated at 9000 or 15,000 cells/well in a 384 well plate (Corning #3770). Compounds of the present disclosure and positive controls were diluted in the appropriate cell media and applied to the plated cells resulting in a final concentration titration of 10 μM to […] in 0.5% DMSO. Gambogic acid was used as a positive control for cytotoxicity and titrated from 10 μM to 78 nM. All assays were performed in triplicate. Cells were treated with compounds for 24 hr at 37° C. in an incubator containing 5% CO2. Following treatment, alamar blue was used to determine if any compounds led to a loss in cell viability after 24 hr. The 10× alamar blue reagent was added to a final concentration of 1× as recommended by the manufacturer and cells were returned to the incubator for 4 hr. Plates were then allowed to equilibrate to RT and fluorescence was measured using a Perkin-Elmer EnVision. After completion of the fluorescence read, the liquid from each well was removed and the cells were washed with PBS. The Nano-Glo® HiBiT detection reagent was prepared according to the manufacturer's instructions and added to each well after the PBS wash was removed. Following incubation at room temperature for 45 min, the luminescence was read using the ultra-sensitive luminescence aperture on the Envision instrument.
Fluorescence values from the alamar blue treatment were normalized to the DMSO-only control for each compound titration. HiBiT luminescence was normalized to the DMSO-only control and the fractional HiBiT signal was plotted versus the log of the PROTAC concentration and fit to a 4-parameter dose-response model to obtain the concentration of the compound that leads to half maximal degradation (DC50) as well as the maximum degradation observed (Dmax, conventionally expressed as a percentage of control).
For orientation: HiBiT is a short tag that completes a luciferase, so light tracks the accessible tagged protein.
Usually Dmax stands for the largest share of the target that was removed. Higher therefore signals a fuller loss of target. In turn, `CCc1cccc2cc(O)cc(-c3ncc4c(N5CC6CCC(C5)N6)nc(OCCN5CCC(CN6CC7(CCN(c8ccc9c(c8)CN(C8CCC(=O)NC8=O)C9=O)CC7)C6)CC5)nc4c3F)c12` (centres unmarked) [Compound 2] returned a maximal degradation (Dmax) above 70%.

The molecule `CCc1cccc2cc(O)cc(-c3ncc4c(N5CC6CCC(C5)N6)nc(OCCN5CCN(CC6CCN(c7ccc(N8CCC(=O)NC8=O)c(F)c7)CC6)CC5)nc4c3F)c12` [Compound 14] yielded a Dmax of at most 25%.

As for `CCc1cccc2cc(O)cc(-c3ncc4c(N5CC6CCC(C5)N6)nc(OCCN5CCN(CC6CCN(c7ccc(F)c(C(=O)NC8CCC(=O)NC8=O)c7)CC6)CC5)nc4c3F)c12` (centres unmarked) [Compound 17], the Dmax was at most 25%.

Molecule `CCc1cccc2cc(O)cc(-c3ncc4c(N5CC6CCC(C5)N6)nc(OCCN5CCC(CN6CCC(Oc7cccc8c7C(=O)N(C7CCC(=O)NC7=O)C8=O)CC6)CC5)nc4c3F)c12` (centres unmarked) [Compound 18] registered a maximal degradation (Dmax) of at most 25%.

Staying with this test, now noted: AsPC-1 cells.
As a reminder, the DC50 is the midpoint of the concentration-degradation curve. Read a high DC50 as degradation only at high concentration. Regarding `CCc1cccc2cc(O)cc(-c3ncc4c(N5CC6CCC(C5)N6)nc(OCCN5CCC(CN6CC7(C6)CN(c6ccc8c(c6)C(=O)N(C6CCC(=O)NC6=O)C8=O)C7)CC5)nc4c3F)c12` (centres unmarked) [Compound 1], the 50% degradation concentration (DC50) fell in the range of 0.1 to 5.25 µM.

On to `CCc1cccc2cc(O)cc(-c3ncc4c(N5CC6CCC(C5)N6)nc(OCCN5CCC(CN6CC7(CCN(c8ccc9c(c8)CN(C8CCC(=O)NC8=O)C9=O)CC7)C6)CC5)nc4c3F)c12` (centres unmarked) [Compound 2], for which the half-maximal degradation concentration (DC50) is below 5.1 µM.

For the molecule `CCc1cccc2cc(O)cc(-c3ncc4c(N5CC6CCC(C5)N6)nc(OCCN5CCC(CN6CCC7(CC6)CN(c6cccc8c6CN(C6CCC(=O)NC6=O)C8=O)C7)CC5)nc4c3F)c12` (centres unmarked) [Compound 3], the DC50 fell in the range of 0.25 to 1 µM.

`CCc1cccc2cc(O)cc(-c3ncc4c(N5CC6CCC(C5)N6)nc(OCCN5CCN(CCN(C)[C@H]6C[C@H](Oc7ccc8c(c7)C(=O)N(C7CCC(=O)NC7=O)C8=O)C6)CC5)nc4c3F)c12` (some centres unmarked) [Compound 4] came in with a DC50 above 1 µM.

`CCc1cccc2cc(O)cc(-c3ncc4c(N5CC6CCC(C5)N6)nc(OCCN5CCN(c6cc(N7CCN(c8ccc9c(c8)C(=O)N(C8CCC(=O)NC8=O)C9=O)CC7)ncn6)CC5)nc4c3F)c12` (centres unmarked) [Compound 5] had a DC50 above 1 µM.

In the case of `CCc1cccc2cc(O)cc(-c3ncc4c(N5CC6CCC(C5)N6)nc(OCCN5CCN(CC6CCN(C(=O)c7ccc(OC)c(N8CCC(=O)NC8=O)c7)CC6)CC5)nc4c3F)c12` [Compound 6], the DC50 is above 1 µM.

With `CCc1cccc2cc(O)cc(-c3ncc4c(N5CC6CCC(C5)N6)nc(OCCN5CCN(c6cc(OC)c7c(c6)C(=O)N(C6CCC(=O)NC6=O)C7=O)CC5)nc4c3F)c12` (centres unmarked) [Compound 7], the DC50 is above 1 µM.

As for `CCc1cccc2cc(O)cc(-c3ncc4c(N5CC6CCC(C5)N6)nc(OCCN5CCC(CN6CCC(Oc7ccc8c(c7)C(=O)N(C7CCC(=O)NC7=O)C8=O)CC6)CC5)nc4c3F)c12` (centres unmarked) [Compound 8], the DC50 lay in the range of 0.25 to 1 µM.

The molecule `CCc1cccc2cc(O)cc(-c3ncc4c(N5CC6CCC(C5)N6)nc(OCCN5CCC(CN6CCN(c7cccc8c7CN(C7CCC(=O)NC7=O)C8=O)CC6)CC5)nc4c3F)c12` (centres unmarked) [Compound 9] had a DC50 of 0.25 to 1 µM.

Turning to `CCc1cccc2cc(O)cc(-c3ncc4c(N5CC6CCC(C5)N6)nc(OCCN5CCC(CCCN6CCN(c7ccc8c(c7)C(=O)N(C7CCC(=O)NC7=O)C8=O)CC6)CC5)nc4c3F)c12` (centres unmarked) [Compound 10], the DC50 was in the range of 0.25 to 1 µM.

Turning to `CCc1cccc2cc(O)cc(-c3ncc4c(N5CC6CCC(C5)N6)nc(OCCN5CCC(CN(C)[C@H]6C[C@H](Oc7ccc8c(c7)C(=O)N(C7CCC(=O)NC7=O)C8=O)C6)CC5)nc4c3F)c12` (some centres unmarked) [Compound 11], the DC50 was 0.25 to 1 µM.

`CCc1cccc2cc(O)cc(-c3ncc4c(N5CC6CCC(C5)N6)nc(OCCN5CCC(CCC6CCN(c7ccc8c(c7)C(=O)N(C7CCC(=O)NC7=O)C8=O)CC6)CC5)nc4c3F)c12` (centres unmarked) [Compound 12] displayed a DC50 above 1 µM.

As for `CCc1cccc2cc(O)cc(-c3ncc4c(N5CC6CCC(C5)N6)nc(OCCN5CCC(C(C)(C)N6CCN(c7ccc8c(c7)C(=O)N(C7CCC(=O)NC7=O)C8=O)CC6)CC5)nc4c3F)c12` (centres unmarked) [Compound 13], the DC50 lay within 0.25 to 1 µM.

With `CCc1cccc2cc(O)cc(-c3ncc4c(N5CC6CCC(C5)N6)nc(OCCN5CCN(CC6CCN(c7ccc(N8CCC(=O)NC8=O)c(F)c7)CC6)CC5)nc4c3F)c12` [Compound 14], the DC50 is 0.25 to 1 µM.

`CCc1cccc2cc(O)cc(-c3ncc4c(N5CC6CCC(C5)N6)nc(OCCN5CCN(CC6CCN(c7ccc(OC)c(C(=O)NC8CCC(=O)NC8=O)c7)CC6)CC5)nc4c3F)c12` (centres unmarked) [Compound 15] yielded a DC50 of 0.25 to 1 µM.

`CCc1cccc2cc(O)cc(-c3ncc4c(N5CC6CCC(C5)N6)nc(OCCN5CCC(Cn6cccc(CN7CCC(=O)NC7=O)c6=O)CC5)nc4c3F)c12` [Compound 16] returned a DC50 above 1 µM.

Molecule `CCc1cccc2cc(O)cc(-c3ncc4c(N5CC6CCC(C5)N6)nc(OCCN5CCN(CC6CCN(c7ccc(F)c(C(=O)NC8CCC(=O)NC8=O)c7)CC6)CC5)nc4c3F)c12` (centres unmarked) [Compound 17] returned a DC50 of 0.25 to 1 µM.

In turn, `CCc1cccc2cc(O)cc(-c3ncc4c(N5CC6CCC(C5)N6)nc(OCCN5CCC(CN6CCC(Oc7cccc8c7C(=O)N(C7CCC(=O)NC7=O)C8=O)CC6)CC5)nc4c3F)c12` (centres unmarked) [Compound 18] returned a DC50 above 1 µM.

In turn, `CCc1cccc2cc(O)cc(-c3ncc4c(N5CC6CCC(C5)N6)nc(OCCN5CCC6(CC5)CCN(c5ccc7c(c5)C(=O)N(C5CCC(=O)NC5=O)C7=O)CC6)nc4c3F)c12` (centres unmarked) [Compound 19] gave a DC50 of 0.25 to 1 µM.

`CCc1cccc2cc(O)cc(-c3ncc4c(N5CC6CCC(C5)N6)nc(OCCN5CCC(CN6CCN(CC7CCN(c8ccc9c(c8)C(=O)C(C8CCC(=O)NC8=O)C9=O)CC7)CC6)CC5)nc4c3F)c12` (centres unmarked) [Compound 20]: the half-maximal degradation concentration (DC50) lay in the range of 0.1 to 5.25 µM.

The molecule `CCc1cccc2cc(O)cc(-c3ncc4c(N5CC6CCC(C5)N6)nc(OCCN5CCOC(CN6CCN(CC7CCN(c8ccc9c(c8)C(=O)N(C8CCC(=O)NC8=O)C9=O)CC7)CC6)C5)nc4c3F)c12` (centres unmarked) [Compound 21] yielded a DC50 of 0.25 to 1 µM.

Turning to `CCc1cccc2cc(O)cc(-c3ncc4c(N5CC6CCC(C5)N6)nc(OCCN5CCC(CN6CCC7(CC6)CCN(c6ccc8c(c6)C(=O)N(C6CCC(=O)NC6=O)C8=O)CC7)CC5)nc4c3F)c12` (centres unmarked) [Compound 22], the DC50 lay in the range of 0.1 to 5.25 µM.

`CCc1cccc2cc(O)cc(-c3ncc4c(N5CC6CCC(C5)N6)nc(OCCN5CCC(O[C@H]6CC[C@H](OC7CCN(c8cccc9c8CN(C8CCC(=O)NC8=O)C9=O)CC7)CC6)CC5)nc4c3F)c12` (some centres unmarked) [Compound 23] yielded a 50% degradation concentration (DC50) of 0.25 to 1 µM.

Turning to `CCc1cccc2cc(O)cc(-c3ncc4c(N5CC6CCC(C5)N6)nc(OCCN5CCC(O[C@H]6C[C@H](OC7CCN(c8cccc9c8CN(C8CCC(=O)NC8=O)C9=O)CC7)C6)CC5)nc4c3F)c12` (some centres unmarked) [Compound 24], the DC50 lay within 0.1 to 5.25 µM.

In turn, `CCc1cccc2cc(O)cc(-c3ncc4c(N5CC6CCC(C5)N6)nc(OCCN5CCC6(CC5)CCN(CC5CCN(c7ccc8c(c7)C(=O)N(C7CCC(=O)NC7=O)C8=O)CC5)CC6)nc4c3F)c12` (centres unmarked) [Compound 25] yielded a DC50 below 5.1 µM.

Take `CCc1cccc2cc(O)cc(-c3ncc4c(N5CC6CCC(C5)N6)nc(OCCN5CCC(COCC6CCN(c7ccc8c(c7)C(=O)N(C7CCC(=O)NC7=O)C8=O)CC6)CC5)nc4c3F)c12` (centres unmarked) [Compound 26]: the DC50 is 0.25 to 1 µM.

Take `CCc1cccc2cc(O)cc(-c3ncc4c(N5CC6CCC(C5)N6)nc(OCCN5CCC(C6CCN(c7ccc8c(c7)C(=O)N(C7CCC(=O)NC7=O)C8=O)CC6)CC5)nc4c3F)c12` (centres unmarked) [Compound 27]: the DC50 was in the range of 0.25 to 1 µM.

`CCc1cccc2cc(O)cc(-c3ncc4c(N5CC6CCC(C5)N6)nc(OCCN5CCC(CC6CCN(c7cccc8c7n(C)c(=O)n8C7CCC(=O)NC7=O)CC6)CC5)nc4c3F)c12` (centres unmarked) [Compound 28, 3-[4-[4-[[1-[2-[4-(3,8-diazabicyclo[3.2.1]octan-3-yl)-7-(8-ethyl-3-hydroxy-1-naphthyl)-8-fluoro-pyrido[4,3-d]pyrimidin-2-yl]oxyethyl]-4-piperidyl]methyl]-1-piperidyl]-3-methyl-2-oxo-benzimidazol-1-yl]piperidine-2,6-dione] gave a 50% degradation concentration (DC50) of 0.25 to 1 µM.

`CCc1cccc2cc(O)cc(-c3ncc4c(N5CC6CCC(C5)N6)nc(OCCN5CCC(F)(CC6CCN(c7cccc8c7CN(C7CCC(=O)NC7=O)C8=O)CC6)CC5)nc4c3F)c12` (centres unmarked) [Compound 29] yielded a DC50 of 0.25 to 1 µM.

With `CCc1cccc2cc(O)cc(-c3nc(N4CC5CCC(C4)N5)c4cnc(OCCN5CCC(CC6CCN(c7cccc8c7CN(C7(C)CCC(=O)NC7=O)C8=O)CC6)CC5)nc4c3F)c12` (centres unmarked) [Compound 30], the DC50 is above 1 µM.

`CCc1cccc2cc(O)cc(-c3ncc4c(N5CC6CCC(C5)N6)nc(OCCN5CCC(CCN6CCN(c7ccc8c(c7)C(=O)N(C7CCC(=O)NC7=O)C8=O)CC6)CC5)nc4c3F)c12` (centres unmarked) [Compound 31] gave a DC50 of 0.1 to 5.25 µM.

Values taken from patent publication US12448399B2, “Cereblon-based KRAS degrading PROTACs and uses related thereto” (Arvinas Operations, Inc., priority 2023, dated 2025).
